Patent publication US7435837B2, “Dihydrobenzofuranyl alkanamine derivatives and methods for using same” (Wyeth, priority 2003, dated 2008)

How the values were obtained:
[1] = target: T1, human 5-hydroxytryptamine-2C (h5-HT2C) receptor (Homo sapiens, UniProt P28335); assay: [125I]DOI binding to membranes of CHO cells expressing the human 5-HT2C receptor; details: [125I]DOI radioligand, CHO cell membranes, room temperature 60 min; read-out: 5-HT2C Affinity Ki
T1 construct: expressed in transfected cells; host or cells: CHO (Chinese Hamster Ovary) cells; membranes
T1 sequence (P28335 33-458): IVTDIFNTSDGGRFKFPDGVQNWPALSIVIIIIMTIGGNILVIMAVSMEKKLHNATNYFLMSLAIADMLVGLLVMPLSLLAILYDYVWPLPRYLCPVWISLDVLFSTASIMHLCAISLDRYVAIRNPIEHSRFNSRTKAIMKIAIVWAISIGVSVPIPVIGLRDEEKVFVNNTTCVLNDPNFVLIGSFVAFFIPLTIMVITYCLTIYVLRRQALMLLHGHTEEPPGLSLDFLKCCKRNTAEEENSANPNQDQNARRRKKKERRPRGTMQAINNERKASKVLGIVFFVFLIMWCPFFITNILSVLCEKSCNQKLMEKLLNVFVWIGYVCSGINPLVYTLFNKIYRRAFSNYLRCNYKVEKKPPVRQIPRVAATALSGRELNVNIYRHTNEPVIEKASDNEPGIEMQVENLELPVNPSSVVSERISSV

human 5-HT2C receptor = target: T2, human 5-HT2C receptor (Homo sapiens, UniProt P28335); assay: 5-HT2C receptor-stimulated calcium mobilization (FLIPR) in CHO cells; format: cell-based; details: for Emax: CHO, read-out: 5-HT2C Function Emax (%); for Emax / 5-HT2C Function Emax (%): percentage of the response observed with a maximally effective concentration of 5-HT; for EC50: calcium mobilization, CHO cells stably expressing human 5-HT2C, read-out: 5-HT2C Function EC50;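 on all read-outs here: Fluo-3-AM fluorescence read on FLIPR every 1 s, agonist added after 10 baseline reads, response taken as peak minus lowest raw fluorescence count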
T2 sequence (P28335 33-458): T1 sequence (P28335 33-458)

| SMILES | Ki [1] [nM] | Emax (human 5-HT2C receptor) [%] | EC50 (human 5-HT2C receptor) [nM] | 5-HT2C Function Emax (%) (human 5-HT2C receptor) |
| --- | --- | --- | --- | --- |
| CNCC1Cc2cc(F)cc(-c3cc(C)ccc3OC)c2O1 (racemic) [Example 457, (±)-{[5-fluoro-7-(2-methoxy-5-methylphenyl)-2,3-dihydro-1-benzofuran-2-yl]methyl}methylamine] | 38 | 50 | 740 |  |
| NCC1Cc2cc(Cl)cc(-c3ccccc3)c2O1 (single isomer, unassigned; (-)) [Example 86, (−)-1-(5-chloro-7-phenyl-2,3-dihydro-1-benzofuran-2-yl)methanamine] | 75 |  | 963 | 90 |
| CNCC1Cc2cc(C)cc(-c3ccc(Cl)cc3Cl)c2O1 (racemic) [Example 485, (±)-{[7-(2,4-dichlorophenyl)-5-methyl-2,3-dihydro-1-benzofuran-2-yl]methyl}methylamine] | 3 | 90 | 32 |  |
| N#Cc1cc2c(c(-c3ccccc3Cl)c1)OC(CN)C2 (racemic) [Example 312, (±)-2-(aminomethyl)-7-(2-chlorophenyl)-2,3-dihydro-1-benzofuran-5-carbonitrile] | 15 | 90 | 25 |  |
| NCC1Cc2cccc(-c3ccccc3Cl)c2O1 (single isomer, unassigned; (-)) [Example 129, (−)-1-[7-(2-chlorophenyl)-2,3-dihydro-1-benzofuran-2-yl]methanamine] | 0.3 | 100 | 0.2 |  |
| COc1ccccc1-c1cc(F)cc2c1OC(CN)C2 (racemic) [Example 195, (±)-{[5-fluoro-7-(2-methoxyphenyl)-2,3-dihydro-1-benzofuran-2-yl]methyl}amine] | 0.48 | 80 | 9 |  |
| Cc1c(Cl)cc(C(C)C)c2c1CC(CN)O2 (single isomer, unassigned; (-)) [Example 22, (−)-1-(5-chloro-7-isopropyl-4-methyl-2,3-dihydro-1-benzofuran-2-yl)methanamine] | 5 | 90 | 25 |  |
| NCC1Cc2c(cccc2-c2ccccc2)O1 (racemic) [Example 1, (±)-1-(4-phenyl-2,3-dihydro-1-benzofuran-2-yl)methanamine] | 43 | 90 | 926 |  |
| NCC1Cc2cccc(-c3ccc(Cl)cc3Cl)c2O1 (single isomer, unassigned; (+)) [Example 150, (+)-1-[7-(2,4-dichlorophenyl)-2,3-dihydro-1-benzofuran-2-yl]methanamine] | 4.1 |  | 74 | 100 |
| CNCC1Cc2cccc(-c3ccccc3F)c2O1 (racemic) [Example 412, (±)-[(N-methyl-1-[7-(2-fluorophenyl)-2,3-dihydro-1-benzofuran-2-yl]methanamine] | 5.3 | 90 | 34 |  |
| NCC1Cc2cc(F)cc(-c3ccoc3)c2O1 (racemic) [Example 204, (±)-{[5-fluoro-7-(3-furyl)-2,3-dihydro-1-benzofuran-2-yl]methyl}amine] | 1.3 | 90 | 336 |  |
| COc1cc2c(c(-c3cc(Cl)ccc3OC)c1)OC(CN)C2 (racemic) [Example 372, (±)-{[7-(5-chloro-2-methoxyphenyl)-5-methoxy-2,3-dihydro-1-benzofuran-2-yl]methyl}amine] | 23 | 80 | 224 |  |
| Cc1ccccc1-c1cc(Cl)cc2c1OC(CN)C2 (racemic) [Example 95, (±)-1-[5-chloro-7-(2-methylphenyl)-2,3-dihydro-1-benzofuran-2-yl]methanamine] | 1 | 100 | 65 |  |
| Cc1ccc(-c2cccc3c2OC(CN)C3)cc1 (single isomer, unassigned; (+)) [Example 71, (+)-1-[7-(4-methylphenyl)-2,3-dihydro-1-benzofuran-2-yl]methanamine] | 1 | 100 | 1.4 |  |
| Cc1ccc(-c2cccc3c2OC(CN)C3)cc1 (racemic) [Example 70, (±)-1-[7-(4-methylphenyl)-2,3-dihydro-1-benzofuran-2-yl]methanamine] | 2 | 100 | 22 |  |
| CNCC1Cc2cc(OC)cc(-c3cc(OC)ccc3OC)c2O1 (racemic) [Example 501, (±)-{[7-(2,5-dimethoxyphenyl)-5-methoxy-2,3-dihydro-1-benzofuran-2-yl]methyl}methylamine] | 45 | 70 | 70 |  |

| SMILES | Ki [1] [nM] | Emax (human 5-HT2C receptor) [%] | EC50 (human 5-HT2C receptor) [nM] | 5-HT2C Function Emax (%) (human 5-HT2C receptor) |
| --- | --- | --- | --- | --- |
| NCC1Cc2cccc(-c3cccnc3)c2O1 (single isomer, unassigned; (+)) [Example 171, (+)-{[7-pyridin-3-yl-2,3-dihydro-1-benzofuran-2-yl]methyl}amine] | 0.88 | 100 | 0.7 |  |
| CNCC1Cc2cc(C(F)(F)F)cc(-c3ccccc3)c2O1 (racemic) [Example 518, (±)-{[N-methyl-1-[7-phenyl-5-(trifluoromethyl)-2,3-dihydro-1-benzofuran-2-yl]methanamine] | 40 | 80 | 384 |  |
| CNCC1Cc2cc(F)cc(-c3cc(F)ccc3F)c2O1 (racemic) [Example 448, (±)-{[7-(2,5-difluorophenyl)-5-fluoro-2,3-dihydro-1-benzofuran-2-yl]methyl}methylamine] | 7 | 70 | 78 |  |
| CNCC1Cc2cc(Cl)cc(-c3cccc(F)c3F)c2O1 (racemic) [Example 463, (±)-{[5-chloro-7-(2,3-difluorophenyl)-2,3-dihydro-1-benzofuran-2-yl]methyl}methylamine] | 21 | 80 | 89 |  |
| CC(C)(C)c1cc(Cl)cc2c1OC(CN)C2 (single isomer, unassigned; (-)) [Example 28, (−)-1-(7-tert-butyl-5-chloro-2,3-dihydro-1-benzofuran-2-yl)methanamine] | 16 | 90 | 77 |  |
| NCC1Cc2cccc(-c3cc(Cl)ccc3Cl)c2O1 (racemic) [Example 163, (±)-{[7-(2,5-dichlorophenyl)-2,3-dihydro-1-benzofuran-2-yl]methyl}amine] | 0.23 | 90 | 2 |  |
| CNCC1Cc2cc(F)cc(-c3cc(Cl)ccc3Cl)c2O1 (single isomer, unassigned; (+)) [Example 450, (+)-{[5-fluoro-7-(2,5-dichlorophenyl)-2,3-dihydro-1-benzofuran-2-yl]methyl}methylamine] | 0.27 | 100 | 0.8 |  |
| Cc1ccccc1-c1cc(F)cc2c1OC(CN)C2 (single isomer, unassigned; (-)) [Example 106, (−)-1-[5-fluoro-7-(2-methylphenyl)-2,3-dihydro-1-benzofuran-2-yl]methanamine] | 16 |  | 91 | 50 |
| CNCC1Cc2cc(C)cc(-c3cc(Cl)ccc3Cl)c2O1 (single isomer, unassigned; (-)) [Example 488, (−)-{[7-(2,5-dichlorophenyl)-5-methyl-2,3-dihydro-1-benzofuran-2-yl]methyl}methylamine] | 0.34 |  | 132 | 90 |
| NCC1Cc2cc(F)cc(-c3c(Cl)cccc3Cl)c2O1 (racemic) [Example 230, (±)-{[7-(2,6-dichlorophenyl)-5-fluoro-2,3-dihydro-1-benzofuran-2-yl]methyl}amine] | 0.6 | 90 | 48 |  |
| COc1ccc(-c2cc(C(F)(F)F)cc3c2OC(CN)C3)cc1 (racemic) [Example 326, (±)-{[5-(trifluoromethyl)-7-(4-methoxyphenyl)-2,3-dihydro-1-benzofuran-2-yl]methyl}amine] | 34 | 80 | 228 |  |
| NCC1Cc2cccc(-c3ccc(C(F)(F)F)cc3)c2O1 (single isomer, unassigned; (-)) [Example 138, (−)-1-{7-[4-(trifluoromethyl)phenyl]-2,3-dihydro-1-benzofuran-2-yl}methanamine] | 7.4 |  | 3800 | 60 |
| NCC1Cc2cc(F)cc(-c3c(F)cccc3F)c2O1 (racemic) [Example 226, (±)-{[7-(2,6-difluorophenyl)-5-fluoro-2,3-dihydro-1-benzofuran-2-yl]methyl}amine] | 1.3 | 90 | 30 |  |
| COc1ccc(-c2cc(C(F)(F)F)cc3c2OC(CN)C3)c(OC)c1 (racemic) [Example 333, (±)-{[7-(2,4-dimethoxyphenyl)-5-(trifluoromethyl)-2,3-dihydro-1-benzofuran-2-yl]methyl}amine] | 13 | 90 | 70 |  |
| COc1cc2c(c(-c3ccc(Cl)cc3Cl)c1)OC(CN)C2 (racemic) [Example 365, (±)-{[7-(2,4-dichlorophenyl)-5-methoxy-2,3-dihydro-1-benzofuran-2-yl]methyl}amine] | 24 | 100 | 15 |  |
